Experiments:
Poria placenta = experiment: Agar hyphae growth test, minimum inhibitory concentration (MIC) and Kull synergism; assay type: cell-based; conditions: malt extract/peptone nutrient agar, 26° C., radial hyphae growth suppressed completely; read-out: MIC against Poria placenta
Procedure: (§1) The synergism was determined by the method described by Kull et al. (F. C. Kull, P. C. Eismann, H. D. Sylvestrowicz, R. L. Mayer, Applied Microbiology 1961, 9, 538-541). Here, the following relations apply:
(§2) [formula] X=1 means additivity X>1 means antagonism X<1 means synergism Qa=concentration of substance A which is the MIC Qb=concentration of substance B which is the MIC QA=concentration of substance A in the concentration of A/B which suppresses the microbial growth QB=concentration of substance B in the concentration of A/B which suppresses the microbial growth Results:
(§3) Mycelium pieces were punched out of a colony of the wood-destroying fungus Poria placenta and incubated at 26° C. on a malt extract/peptone-containing nutrient agar. The hyphae growth with and without added active compound and/or additive was compared. The minimum inhibitory concentration (MIC) stated is the concentration at which the radial hyphae growth is suppressed completely.

Gloeophyllum trabeum = experiment: as above; assay type: cell-based; conditions: 168 h, malt extract/peptone nutrient agar, 26° C., radial hyphae growth suppressed completely, about 1 week, read-out: MIC against Gloeophyllum trabeum
Procedure: as §3, with “Gloeophyllum trabeum” for “Poria placenta”, “amidoalkylamine” for “additive”, “completely (incubation time: about 1 week depending on the fungal growth of the comparative sample without active compound).” for “completely.”
as §1
as §2, with “Results: […]” for “Results:”

CCCC1COC(Cn2cncn2)(c2ccc(Cl)cc2Cl)O1 (stereo not drawn) [propiconazole]
MIC (Poria placenta): 0.5 µg/mL

CC(C)(C)C(O)(CCc1ccc(Cl)cc1)Cn1cncn1 (stereo not drawn) [tebuconazole]
MIC (Gloeophyllum trabeum): 0.5 µg/mL

CC(C)(C)C(=O)C(Oc1ccc(Cl)cc1)n1cncn1 (stereo not drawn) [triadimefon]
MIC (Poria placenta): 3 µg/mL

Reference: patent US8002883B2, “Amidoalkylamine-comprising azole compositions for protecting industrial materials” (LANXESS Deutschland GmbH, priority 2009, dated 2011)
